Data from paper PMC9780942, “Antimicrobial Activity and Immunomodulatory Properties of Acidocin A, the Pediocin-like Bacteriocin with the Non-Canonical Structure” (Membranes, 2022).
Positions of bridges follow the written chain, without caps; N, C: chain ends. No end group written: not given here.

How the values were obtained:
L. monocytogenes EGD = format: cell-based, Listeria monocytogenes; details: 24 h
How it was run: (§1)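 MIC read as the minimum peptide concentration without visible growth, aided by 2 h resazurin (20 µg/mL) when needed. Cells from mid-log cultures (10^6 CFU/mL, 2x MHB or 3% TSB for Listeria) met two-fold bacteriocin dilutions in 0.1% BSA for 24 h at 37 °C with shaking.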

A. baumannii XDR CI 2675 = format: cell-based; details: XDR CI 2675, 24 h
How it was run: as §1

E. coli ATCC 25922 = format: cell-based; details: ATCC 25922, 24 h
How it was run: as §1

E. coli ML-35p = format: cell-based; details: 24 h
How it was run: as §1

E. coli SQ110 = format: cell-based; details: SQ110, 24 h
How it was run: as §1

E. coli XDR CI 1057 = format: cell-based; details: XDR CI 1057, 24 h
How it was run: as §1

[1] = test system: P. aeruginosa MDR CI 1995; format: cell-based; details: MDR CI 1995, 24 h
How it was run: as §1

S. aureus 209P = format: cell-based; details: 24 h
How it was run: as §1

[2] = test system: E. coli ML-35p cytoplasmic membrane; assay: Cytoplasmic membrane permeability assay with ONPG; format: cell-based; details: PBS pH 7.4 with NaCl, 35 °C, absorbance 405 nm, three independent experiments
Procedure: The ability of the peptides to disrupt the integrity of bacterial membranes was assessed using chromogenic substrates that are unable to enter the intact cell. For these assays, E. coli strain ML-35p was chosen that constitutively expresses β-lactamase (secreted into the periplasmic space), β-galactosidase (that is active in cytoplasm), and lacks lactose permease. Nitrocefin, which is a substrate for lactamase, served as an indicator of increased outer membrane permeability. o-Nitrophenyl-β-D-galactopyranoside (ONPG), a substrate for […], was used to assess the integrity of the cytoplasmic membrane. The bacterial cultures were grown to stationary phase in 3% TSB medium at 37 °C overnight. The cells were washed three times with cold 10 mM phosphate-buffered saline (PBS), pH 7.4 ([…], 2.7 mM KCl, 10 mM Na2HPO4, 1.76 mM KH2PO4), and diluted to the concentration of 3.3 × 10^7 CFU/mL with 10 mM PBS (pH 7.4), containing increased concentration of NaCl (1.2%, or 205 mM) and dissolved nitrocefin (Merck-Millipore, Burlington, MA, USA) or ONPG (AppliChem GmbH, Darmstadt, Germany). […] The plate was incubated at 35 °C, 500 rpm, and the absorbance of the hydrolysis products of ONPG or nitrocefin was measured spectrophotometrically at regular intervals at 405 nm or 492 nm, respectively, using AF2200 microplate reader (Eppendorf, Hamburg, Germany). […]

[3] = test system: primary CD14+ blood monocytes; assay: Cytokine response by human monocytes, multiplex xMAP; format: cell-based; details: 2 µM peptide, 24 h, supernatant; for MCP-3: untreated control 52.14; for TNFa: untreated control 67.34; for PDGF-AB/BB: untreated control 86.09; for MIG: untreated control 205.59

## TYYGNGVSCNKKGCSVDWGKAISIIGNNSAANLATGGAAGWKS (disulfide 9-14) [Avicin A]
L. monocytogenes EGD
  Minimum Inhibitory Concentration: <0.125 µM
A. baumannii XDR CI 2675
  Minimum Inhibitory Concentration: >32 µM
E. coli ATCC 25922
  Minimum Inhibitory Concentration: >32 µM
E. coli ML-35p
  Minimum Inhibitory Concentration: >32 µM
E. coli SQ110
  Minimum Inhibitory Concentration: >32 µM
E. coli XDR CI 1057
  Minimum Inhibitory Concentration: >32 µM
[1]
  Minimum Inhibitory Concentration: >32 µM
S. aureus 209P
  Minimum Inhibitory Concentration: >32 µM
[2]
  Effect on cytoplasmic membrane integrity (ONPG hydrolysis kinetics): melittin >> acidocin A ≈ pediocin box mutants > peptides without a disulfide bond > avicin A >> AviA(T)
[3]; untreated control 2.28
  IL-1b: 17.13 pg/mL
[3]; untreated control 4.48
  IL-6: 2787 pg/mL
[3]; untreated control 5.44
  VEGFa: <1.52↓ pg/ml
[3]; untreated control 11.73
  MIP-1a: 6628 pg/mL
[3]; untreated control 12.5
  PDGF-AA: 10.87 pg/mL
[3]; untreated control 15.86
  sCD40L: 45.71 pg/mL
[3]; untreated control 19.67
  IP-10: 21.71 pg/mL
[3]; untreated control 34.63
  MIP-1b: 3805 pg/mL
[3]
  MCP-3: 227 pg/mL
  TNFa: 17,982 pg/ml
  PDGF-AB/BB: 99 pg/mL
  MIG: 729 pg/mL
[3]; listed as AviA
  MCP-3: 227.15 pg/mL
  TNFa: 17982 pg/mL
  PDGF-AB/BB: 99.49 pg/mL
  MIG: 729.91 pg/mL
[3]; untreated control 261.2
  IL-1RA: 253.61 pg/mL
[3]; untreated control 311.89
  GROa: 4832 pg/mL
[3]; untreated control 463.06
  MDC: 2303 pg/mL
[3]; untreated control 464.5
  MCP-1: 3950 pg/mL
[3]; untreated control 12488
  IL-8: >36420↑ pg/ml
[3]; untreated control <0.20
  IL-7: <0.20↓ pg/ml
  IL-18: <0.20↓ pg/ml
[3]; untreated control <0.26
  IL-5: <0.26↓ pg/ml
[3]; untreated control <0.33
  IL-4: <0.33↓ pg/ml
[3]; untreated control <0.49
  TNFb: 7.81 pg/mL
[3]; untreated control <0.53
  TGF-a: 2.38 pg/mL
[3]; untreated control <0.68
  IL-3: <0.68↓ pg/ml
[3]; untreated control <0.85
  IL-2: 0.86 pg/mL
[3]; untreated control <1.23
  IL-10: 4.28 pg/mL
[3]; untreated control <1.35
  FLT-3L: <1.35↓ pg/ml
[3]; untreated control <1.39
  GM-CSF: 12.72 pg/mL
[3]; untreated control <1.45
  IL-15: 1.55 pg/mL
[3]; untreated control <1.58
  IL-12 (p70): <1.58↓ pg/ml
[3]; untreated control <1.79
  IFNg: <1.79↓ pg/ml
[3]; untreated control <2.00
  IL-17A: <2.00↓ pg/ml
[3]; untreated control <2.78
  IL-1a: 10.22 pg/mL
[3]; untreated control <2.79
  RANTES: 638.27 pg/mL
[3]; untreated control <2.90
  IL-13: 7.71 pg/mL
[3]; untreated control <3.18
  G-CSF: 190 pg/mL
  IL-12 (p40): 19.93 pg/mL
[3]; untreated control <3.18, listed as AviA
  G-CSF: 190.3 pg/mL
[3]; untreated control <3.89
  IFNa2: 4.69 pg/mL
[3]; untreated control <4.09
  Eotaxin: <4.09↓ pg/ml
[3]; untreated control <4.87
  IL-9: 6.5 pg/mL
[3]; untreated control <4.94
  EGF: 6.51 pg/mL
[3]; untreated control <7.95
  IL-22: 15.81 pg/mL
[3]; untreated control <11.45
  IL-27: 31.07 pg/mL
[3]; untreated control <12.00
  FGF-2: 33.02 pg/mL
[3]; untreated control <14.61
  IL-17F: <14.61↓ pg/ml
[3]; untreated control <19.20
  Fractalkine: <19.20↓ pg/ml
[3]; untreated control <19.97
  IL-17E/IL-25: <19.97↓ pg/ml
[3]; untreated control <23.43
  M-GSF: 261.13 pg/mL
